Measurements as given in publication PMC7568863 (Chemical biology & drug design, 2020).

Experiments:
[1] = system: SKMEL28 melanoma cell line; experiment: Cell apoptosis assay; type: cell-based; conditions: IncuCyte Cytotox Green, Total Green Object Integrated Intensity; 30 h post-treatment; triplicates; preliminary assay
[2] = system: Bfl-1; conditions: ref Barile et al., 2017; cited from earlier work

SMILES: CC1(C)CCC(CN2CCN(c3ccc(C(=O)NS(=O)(=O)c4ccc(NCC5CCOCC5)c([N+](=O)[O-])c4)c(Oc4cnc5[nH]ccc5c4)c3)CC2)=C(c2ccc(Cl)cc2)C1 [ABT199]
- Induction of apoptosis / cell death in SKMEL28 cells [1]: inactive at the concentrations tested
- Activity against Bfl-1 [2]: inactive against Bfl-1
